Laboratory results from patent US20260285850A1, “SUBSTITUTED OXAZOLIDINONES AND IMIDAZOLINONES AS HERBICIDES” (FMC CORPORATION, priority 2023, published 2026).

Legend:
Assay type in all cases: in vivo
[1] = test system: barnyardgrass (Echinochloa crus-galli); test: Test A preemergence soil spray, visual injury rating 0-100; settings: 10 days, 0 = no effect, 100 = complete control
In short: (§1)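 Compounds formulated in a non-phytotoxic solvent with surfactant are sprayed onto soil of freshly planted loam-sand pots ahead of emergence, or onto emerged plants 2-10 cm tall. After a 10-day greenhouse period, each species is scored visually for injury against untreated controls.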

[2] = test system: blackgrass (Alopecurus myosuroides); test: as above; settings: 10 days, 0 = no effect, 100 = complete control
In short: as §1

corn (Zea mays) [3] = test: as above; settings: 10 days, 0 = no effect, 100 = complete control
In short: as §1

[4] = test system: green foxtail (Setaria viridis); test: as above; settings: 10 days, 0 = no effect, 100 = complete control
In short: as §1

kochia (Bassia scoparia) [5] = test: as above; settings: 10 days, 0 = no effect, 100 = complete control
In short: as §1

[6] = test system: oat, wild (wild oat, Avena fatua); test: as above; settings: 10 days, 0 = no effect, 100 = complete control
In short: as §1

[7] = test system: palmer (palmer amaranth, palmer pigweed, Amaranthus palmeri); test: as above; settings: 10 days, 0 = no effect, 100 = complete control
In short: as §1

[8] = test system: ragweed (common ragweed, Ambrosia artemisiifolia); test: as above; settings: 10 days, 0 = no effect, 100 = complete control
In short: as §1

[9] = test system: ryegrass, Italian (italian ryegrass, Lolium multiflorum); test: as above; settings: 10 days, 0 = no effect, 100 = complete control
In short: as §1

soybean (Glycine max) [10] = test: as above; settings: 10 days, 0 = no effect, 100 = complete control
In short: as §1

[11] = test system: wheat (Triticum aestivum); test: as above; settings: 10 days, 0 = no effect, 100 = complete control
In short: as §1

[12] = test system: barnyardgrass (Echinochloa crus-galli); test: Test A postemergence application, visual injury rating 0-100; settings: 10 days
In short: as §1

[13] = test system: blackgrass (Alopecurus myosuroides); test: as above; settings: 10 days
In short: as §1

corn (Zea mays) [14] = test: as above; settings: 10 days
In short: as §1

[15] = test system: galium (catchweed bedstraw, Galium aparine); test: as above; settings: 10 days
In short: as §1

[16] = test system: green foxtail (Setaria viridis); test: as above; settings: 10 days
In short: as §1

[17] = test system: horseweed (Erigeron canadensis); test: as above; settings: 10 days
In short: as §1

kochia (Bassia scoparia) [18] = test: as above; settings: 10 days
In short: as §1

[19] = test system: oat, wild (wild oat, Avena fatua); test: as above; settings: 10 days
In short: as §1

[20] = test system: palmer (palmer amaranth, palmer pigweed, Amaranthus palmeri); test: as above; settings: 10 days
In short: as §1

[21] = test system: ragweed (common ragweed, Ambrosia artemisiifolia); test: as above; settings: 10 days
In short: as §1

[22] = test system: ryegrass, Italian (italian ryegrass, Lolium multiflorum); test: as above; settings: 10 days
In short: as §1

soybean (Glycine max) [23] = test: as above; settings: 10 days
In short: as §1

[24] = test system: wheat (Triticum aestivum); test: as above; settings: 10 days
In short: as §1

[25] = test system: barnyardgrass (Echinochloa crusgalli); test: Test B flooded paddy test, visual plant response rating 0-100; settings: 250 g ai/ha, Flood, applied to paddy water, evaluated after 13 days
In short: (§2)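 Compounds applied to standing paddy water (3 cm above soil, maintained for the test duration) on 2-leaf-stage plants; visual rating vs controls at 13 days, greenhouse.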

[26] = test system: ducksalad (Heteranthera limosa); test: as above; settings: 250 g ai/ha, Flood, applied to paddy water, evaluated after 13 days
In short: as §2

rice (Oryza sativa) = test: as above; settings: 250 g ai/ha, Flood, applied to paddy water, evaluated after 13 days
In short: as §2

[27] = test system: sedge, umbrella (small-flower umbrella sedge, Cyperus difformis); test: as above; settings: 250 g ai/ha, Flood, applied to paddy water, evaluated after 13 days
In short: as §2

[28] = 31 g ai/ha, postemergence, 0 = no effect, 100 = complete control
[29] = Postemergence, 125 g ai/ha, 0 is no effect, 100 is complete control

COC(=O)C1CC(NC(=O)C2(C)CN(c3cc(F)cc(F)c3)C(=O)O2)CO1 (stereo not shown) [Compound 29]
Barnyardgrass plant response rating (0-100) ([1]; 31 g ai/ha): 0 | Barnyardgrass plant response rating (0 to 100 scale) ([1]; 125 g ai/ha): 20 | Blackgrass plant response rating (0-100) ([2]; 31 g ai/ha): 0 | Blackgrass plant response rating (0 to 100 scale) ([2]; 125 g ai/ha): 50 | Corn plant response rating (0-100) (corn (Zea mays) [3]; 31 g ai/ha): 0 | Corn plant response rating (0 to 100 scale) (corn (Zea mays) [3]; 125 g ai/ha): 0 | Foxtail, Green plant response rating (0-100) ([4]; 31 g ai/ha): 0 | Foxtail, Green plant response rating (0 to 100 scale) ([4]; 125 g ai/ha): 0 | Kochia plant response rating (0-100) (kochia (Bassia scoparia) [5]; 31 g ai/ha): 0 | Kochia plant response rating (0 to 100 scale) (kochia (Bassia scoparia) [5]; 125 g ai/ha): 0 | Oat, Wild plant response rating (0-100) ([6]; 31 g ai/ha): 0 | Oat, Wild plant response rating (0 to 100 scale) ([6]; 125 g ai/ha): 60 | Amaranth, Palmer plant response rating (0-100) ([7]; 31 g ai/ha): 0 | Amaranth, Palmer plant response rating (0 to 100 scale) ([7]; 125 g ai/ha): 0 | Ragweed plant response rating (0-100) ([8]; 31 g ai/ha): 0 | Ragweed plant response rating (0 to 100 scale) ([8]; 125 g ai/ha): 0 | Ryegrass, Italian plant response rating (0-100) ([9]; 31 g ai/ha): 0 | Ryegrass, Italian plant response rating (0 to 100 scale) ([9]; 125 g ai/ha): 30 | Soybean plant response rating (0-100) (soybean (Glycine max) [10]; 31 g ai/ha): 0 | Soybean plant response rating (0 to 100 scale) (soybean (Glycine max) [10]; 125 g ai/ha): 0 | Wheat plant response rating (0-100) ([11]; 31 g ai/ha): 0 | Wheat plant response rating (0 to 100 scale) ([11]; 125 g ai/ha): 80 | Barnyardgrass plant response rating (0-100) [12, 28]: 10 | Barnyardgrass plant response rating (0 to 100 scale) [12, 29]: 80 | Blackgrass plant response rating (0-100) [13, 28]: 90 | Blackgrass plant response rating (0 to 100 scale) [13, 29]: 90 | Corn plant response rating (0-100) (corn (Zea mays) [14]; [28]): 0 | Corn plant response rating (0 to 100 scale) (corn (Zea mays) [14]; [29]): 70 | Galium plant response rating (0-100) [15, 28]: 50 | Galium plant response rating (0 to 100 scale) [15, 29]: 80 | Foxtail, Green plant response rating (0-100) [16, 28]: 0 | Foxtail, Green plant response rating (0 to 100 scale) [16, 29]: 80 | Horseweed plant response rating (0-100) [17, 28]: 0 | Horseweed plant response rating (0 to 100 scale) [17, 29]: 20 | Kochia plant response rating (0-100) (kochia (Bassia scoparia) [18]; [28]): 20 | Kochia plant response rating (0 to 100 scale) (kochia (Bassia scoparia) [18]; [29]): 40 | Oat, Wild plant response rating (0-100) [19, 28]: 80 | Oat, Wild plant response rating (0 to 100 scale) [19, 29]: 90 | Amaranth, Palmer plant response rating (0-100) [20, 28]: 0 | Amaranth, Palmer / Pigweed, Palmer plant response rating (0 to 100 scale) [20, 29]: 60 | Ragweed plant response rating (0-100) [21, 28]: 30 | Ragweed plant response rating (0 to 100 scale) [21, 29]: 30 | Ryegrass, Italian plant response rating (0-100) [22, 28]: 50 | Ryegrass, Italian plant response rating (0 to 100 scale) [22, 29]: 90 | Soybean plant response rating (0-100) (soybean (Glycine max) [23]; [28]): 0 | Soybean plant response rating (0 to 100 scale) (soybean (Glycine max) [23]; [29]): 50 | Wheat plant response rating (0-100) [24, 28]: 80 | Wheat plant response rating (0 to 100 scale) [24, 29]: 90 | Plant response rating, Barnyardgrass (0 to 100 scale, 0 is no effect and 100 is complete control) [25]: 0 | Plant response rating, Ducksalad (0 to 100 scale, 0 is no effect and 100 is complete control) [26]: 0 | Plant response rating, Rice (0 to 100 scale, 0 is no effect and 100 is complete control) (rice (Oryza sativa)): 0 | Plant response rating, Sedge, Umbrella (0 to 100 scale, 0 is no effect and 100 is complete control) [27]: 0
